In patent US20210108199A1, “Treatment for aggressive cancers by targeting C9ORF72” (The Trustees of Columbia University in the City of New York, priority 2017, published 2021):

Key:
Format in all cases: cell-based
cortical neurons = experiment: C9 knockdown in neurons and live imaging of mitochondria; details: rat-derived cortical neurons
Protocol: Cortices from E19 embryonic brains from pregnant Sprague-Dawley female rats were dissected in ice-cold HBSS (ThermoFisher™ Scientific #24020117), supplemented with 10 mM HEPES (pH 7.4), 10 mM MgCl2, 1% P/S and 0.5 mM L-glutamine. The hippocampal tissue was discarded and only the cortical tissue was trypsinized for 15 minutes at 37° C. in a water bath and resuspended in DMEM with 10% FBS and 1% P/S. The dissociated neurons were subjected to centrifugation to remove debris, counted and plated onto MatTek™ 35 mm or 50 mm glass bottom dishes pre-coated with Poly-L-Lysine (1 mg/mL) and Laminin, at a density of 100,000 for live imaging experiments. After about 12-15 hours, the medium was changed to Neurobasal medium supplemented with 0.5 mM L-Glutamine, B-27 serum free supplement (Gibco™) and 1% P/S. Media were changed every 2-3 days.
Day 7 cortical neurons were transfected with 80 nM C9orf72 siRNA and 40 ng CMV-GFP vector using a magnetofectamine kit (OZ Biosciences™ #MTX0750). […]

[1] = system: RAS/RAC1 signaling pathway; experiment: Western blot of RAS, RAC1 and phospho-ERK; details: U87 cells
Protocol: (§1) For Western blot analysis, cells were lysed with lysis buffer (20 mM sodium phosphate (pH 7.0), 250 mM NaCl, 30 mM sodium pyrophosphate, 0.1% Nonidet™ P-40, 5 mM EDTA, 10 mM NaF, 0.1 mM Na3VO4, and 1 mM PMSF) supplemented with complete protease inhibitors (Roche™) and homogenized by passage through a 28 gauge needle. Protein concentration was measured with a Bio-Rad™ protein assay dye reagent and results were read using a spectrophotometer (BiophotometerPlus™ by Eppendorf™). Protein extracts were resolved by SDS PAGE on gradient (Thermo Fisher™) or 12% gels. Proteins were then electrotransferred at 350 mA for 80 minutes onto a PVDF membrane (Immobilon-P PVDF). Membranes were blocked with PBST with 5% milk and 1% BSA for 30 minutes. Quantitation of blots was performed Image Studio Lite software (LI-COR Biosciences™).
Macropinocytosis is reported to be dependent on RAS and/or RAC1 activation, therefore whether the RAS/RAC1 signaling pathway is activated upon C9 KD was explored. First, RAS and RAC1 protein levels were measured in U87 cells upon C9 KD. […] If the RAS/RAC1 pathway is active, then ERK1/2 phosphorylation should be observed. FIG. 14 is a WB of U87 cells treated with control (siCtrl) and C9 siRNA (siC9; SEQ ID NO:631) measuring protein levels of RAS and phospho-ERK and loading control actin (left) and a WB showing RAC1 levels under the same conditions with actin as loading control (right). […] Therefore both macropinocytosis and RAS/RAC1 signaling pathways are a possible therapeutic targets in C9 ALS.

U87 cells = experiment: FACS cell cycle analysis; details: day three
Protocol: U87 cells were treated with control and C9 siRNA for 3 days. On day 3, cells were fixed in 70% ethanol at −20° C., re-suspended in phosphate-citrate buffer (192 mM Na2HPO4, 4 mM citric acid), and incubated for 30 minutes in PBS containing 10 μg/mL propidium iodide (PI) and 10 μg/mL RNase A. Data were collected on a FACSCalibur™ flow cytometer (Becton Dickinson™). Data analysis was performed using FlowJo™.
To validate the cell viability assays, C9 was knocked down in U87 cells and the cells were analyzed by FACS. […] The bar plots represent the cell cycle measurement (subG1-purple, G2-green, S-red, G1-blue) of three independent biological replicates upon control (siCtrl) or C9 (siC9; SEQ ID NO:631) siRNA. Error bars represent S.E.M.

caspase-3, PARP1 = experiment: Western blot of caspase-3 and PARP1 cleavage; details: U87 cells
Protocol: as §1
To check known markers of apoptosis, including caspase-3 cleavage and PARP1 cleavage, U87 cells were treated with doxorubicin as a positive control for apoptotic markers. […] FIG. 17 is a set of WB visualizing the levels of cleaved and un-cleaved caspace-3, and cleaved and un-cleaved PARP1 in cells treated with control (siCtrl) and C9 (siC9; SEQ ID NO:631) siRNA, and U87 cells treated.

p53 null U87 cells = experiment: Vacuoles in p53 null U87 clones; details: p53 null U87 clones KO #4 and KO #9
Protocol: To generate p53 knockout clones, U87 cells (7×10^5) were transfected with 2 μg p53 CRISPR/Cas9 KO plasmid (Santa Cruz Biotech™, sc-416469) using Lipofectamine 2000 (ThermoFisher™). Two days later, cells were treated with Nutlin-3 (10 μM) for 12 days to inhibit proliferation of cells with wild type p53, thereby enriching for p53 knockout cells. Single-cell clones were selected via limiting dilution, and p53 knockout clones were confirmed by western blotting using p53 antibody (FL-393).
C9 then was knocked down with two independent siRNAs in the two U87 p53 null clones. […] See FIG. 33A, which provides phase contrast images (40×) of two clones (KO #4 and KO #9) of p53 null U87 cells generated by CRISPR, treated with control (siCtrl) and C9 (siC9; SEQ ID NO:631) siRNA, and FIG. 33B, a WB showing C9 levels after C9 KD in KO #4 cells.
FIG. 34 is a graph presenting quantitation of data for about 90 cells, indicating the number of vacuoles per cell. Statistical significance was assessed by unpaired t-test: NS P>0.05, *P≤0.05, **P≤0.01, ***P≤0.001 ****P≤0.0001. FIG. 35 is a WB showing PARP1, phospho-ERK and γ-H2AX levels upon C9 KD (siC9; SEQ ID NO:631) in U87 KO #4 cell line.

In the case of “siC9: siRNA targeting C9 mRNA: UUAAUGAAACAAUAAUCACUC (SEQ ID NO:631; sense) and GUGAUUAUUGUUUCAUUAAUC (SEQ ID NO:632; antisense) (listed as RNA, chemistry not given here)”, the mitochondria motility (cortical neurons) is reported as “significantly reduced”, the mitochondria accumulation (cortical neurons; dendrites) is reported as “induced mitochondria accumulation in the dendrites” and the RAC1 protein levels [1] is reported as “elevated”. The RAS protein levels [1] was “elevated”, the “phosphorylation of ERK1/2” value [1] was “increased phosphorylation” and the “decrease in G1” value (U87 cells) was 4.7 fold. For the same substance, the “increase in S phase” value (U87 cells) was 3.3 fold, the “increase in SubG1 phase” value (U87 cells) was 3.1 fold and the PARP1 cleavage (caspase-3, PARP1) was “not observed”. The PARP1 protein (caspase-3, PARP1) was “no PARP1 protein observed”, the “caspase 3 cleavage” value (caspase-3, PARP1) was “did not lead to caspase 3 cleavage” and the vacuolization (p53 null U87 cells) was “no significant increase in vacuolization”.
